Source: publication PMC7413254 (Nature Communications, 2020)
Like-named read-outs stand apart in the source and are kept apart here.

Assays:
PfCRT [1] = assay: Potential co-substrates tested for influx of VF-6 via PfCRT into the oocyte; format: cell-based, Plasmodium falciparum; parameters: key: X: Compounds that have been tested as potential co-substrates but are not required for influx of VF-6 via PfCRT into the oocyte
non-expressing oocytes [2] = format: cell-based, Xenopus laevis; conditions: total [3H]CQ transport; for Uptake of [3H]CQ (% non-expressing oocyte control), trans-stimulation: non-expressing oocytes, normalised to the oocyte type control; for Uptake of [3H]CQ (% PfCRTDd2 control), trans-stimulation, non-expressing oocytes: mean ± SEM, SEM
Summary of the method: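 Oocytes (ten per treatment, ≥4 independent frogs/days) were preloaded by injecting VF-6 in 25 nL ND96 at pH 5.0, 5.5, 6.0 or 7.0, or Na^+-free choline buffer, then uptake run 1.5 h, 27.5 °C, ND96 pH 5.5 by default. Internal concentrations assumed ~400 nL oocyte volume.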

PfCRT^Ecu1110 = PfCRT^Ecu1110 (Plasmodium falciparum, UniProt Q9N623, A220S/I356L/K76T/N326D); assay: [3H]CQ uptake into Xenopus oocytes, cis-inhibition by unlabelled solute; format: cell-based; conditions: for Uptake of [3H]CQ (% PfCRTEcu1110 control), cis-inhibition / PfCRT-mediated [3H]CQ transport, cis-inhibition (% PfCRTEcu1110 control): PfCRTEcu1110 oocytes; for Uptake of [3H]CQ (% PfCRTEcu1110 control), cis-inhibition / Uptake of [3H]CQ (% PfCRTDd2 control), cis-inhibition, PfCRTEcu1110: total [3H]CQ transport; for Uptake of [3H]CQ (% PfCRTEcu1110 control), cis-inhibition: normalised to the oocyte type control; for PfCRT-mediated [3H]CQ transport, cis-inhibition (% PfCRTEcu1110 control): background [3H]CQ accumulation subtracted, normalised to oocyte type control; for [3H]CQ transport (% PfCRTEcu1110 control), cis-inhibition, PfCRTEcu1110: PfCRT-mediated component (background subtracted), sheet title says normalised to PfCRTDd2 control; for [3H]CQ transport (% PfCRTEcu1110 control), cis-inhibition, PfCRTEcu1110 / Uptake of [3H]CQ (% PfCRTDd2 control), cis-inhibition, PfCRTEcu1110: mean ± SEM, SEM
PfCRT^Ecu1110, sequence (Q9N623 whole entry A220S/I356L/K76T/N326D): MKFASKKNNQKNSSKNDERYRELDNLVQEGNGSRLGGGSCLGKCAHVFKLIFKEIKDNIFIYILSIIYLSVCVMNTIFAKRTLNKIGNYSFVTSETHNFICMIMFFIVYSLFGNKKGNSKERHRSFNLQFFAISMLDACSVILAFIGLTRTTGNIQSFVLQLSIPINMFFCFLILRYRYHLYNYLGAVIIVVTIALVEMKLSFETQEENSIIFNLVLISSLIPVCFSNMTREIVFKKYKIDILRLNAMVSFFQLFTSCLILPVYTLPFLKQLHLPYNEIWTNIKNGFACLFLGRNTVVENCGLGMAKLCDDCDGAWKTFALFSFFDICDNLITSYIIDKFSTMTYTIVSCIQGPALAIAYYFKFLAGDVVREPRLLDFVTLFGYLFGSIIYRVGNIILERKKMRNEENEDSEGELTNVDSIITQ
Summary of the method: (§1)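 Oocytes expressing PfCRT isoforms, or non-expressing controls, were incubated 1.5 h at 27.5 °C in ND96 buffer pH 5.5 (96 mM NaCl, 2 mM KCl, 1 mM MgCl2, 1.8 mM CaCl2, 10 mM MES, 10 mM Tris-base), measuring uptake from acidic medium into cytosol. Oocytes were washed ice-cold, SDS-lysed and counted by scintillation.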

PfCRT^Dd2 = PfCRT^Dd2 (Plasmodium falciparum, UniProt Q9N623, A220S/I356T/K76T/M74I/N326S/N75E/Q271E/R371I); assay: as above; format: cell-based; conditions: for Uptake of [3H]CQ (% PfCRTDd2 control), cis-inhibition / PfCRT-mediated [3H]CQ transport, cis-inhibition (% PfCRTDd2 control): PfCRTDd2 oocytes; for Uptake of [3H]CQ (% PfCRTDd2 control), cis-inhibition / Uptake of [3H]CQ (% PfCRTDd2 control), cis-inhibition, PfCRTDd2: total [3H]CQ transport; for Uptake of [3H]CQ (% PfCRTDd2 control), cis-inhibition: normalised to the oocyte type control; for PfCRT-mediated [3H]CQ transport, cis-inhibition (% PfCRTDd2 control): background [3H]CQ accumulation subtracted, normalised to oocyte type control; for Uptake of [3H]CQ (% PfCRTDd2 control), cis-inhibition, PfCRTDd2: mean ± SEM, SEM
PfCRT^Dd2, sequence (Q9N623 whole entry A220S/I356T/K76T/M74I/N326S/N75E/Q271E/R371I): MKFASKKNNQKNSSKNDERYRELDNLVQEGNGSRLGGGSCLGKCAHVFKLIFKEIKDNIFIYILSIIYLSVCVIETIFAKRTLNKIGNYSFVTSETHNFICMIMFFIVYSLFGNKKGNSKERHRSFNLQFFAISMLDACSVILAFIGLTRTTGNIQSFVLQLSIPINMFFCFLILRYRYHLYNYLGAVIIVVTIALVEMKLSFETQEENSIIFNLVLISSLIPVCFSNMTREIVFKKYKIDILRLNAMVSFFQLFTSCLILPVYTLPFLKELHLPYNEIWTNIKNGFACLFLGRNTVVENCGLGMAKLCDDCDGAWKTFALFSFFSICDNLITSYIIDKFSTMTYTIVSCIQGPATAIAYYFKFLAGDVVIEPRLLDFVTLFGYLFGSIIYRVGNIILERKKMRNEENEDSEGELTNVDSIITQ
Summary of the method: as §1

non-expressing oocytes [3] = assay: cells; format: cell-based, Xenopus laevis; conditions: total [3H]CQ transport; for Uptake of [3H]CQ (% non-expressing oocyte control), cis-inhibition: non-expressing oocytes, normalised to the oocyte type control; for Uptake of [3H]CQ (% PfCRTDd2 control), cis-inhibition, non-expressing oocytes: mean ± SEM, SEM
Summary of the method: as §1

PfCRT [4] = assay: Test of solutes as potential co-substrates for influx of VF-6 via PfCRT into the oocyte; format: cell-based, Plasmodium falciparum; parameters: key: X: Compounds that have been tested as potential co-substrates but are not required for influx of VF-6 via PfCRT into the oocyte; conditions: X = tested

NC(=O)C[C@H](N)C(=O)O [L-asparagine]
Tested as potential co-substrate but not required for influx of VF-6 via PfCRT into the oocyte (PfCRT [1]): X
Uptake of [3H]CQ (% non-expressing oocyte control), trans-stimulation (non-expressing oocytes [2]; [test solute]i = 5 mM): 100 ± 3.7 % non-expressing oocyte control
Uptake of [3H]CQ (% non-expressing oocyte control), trans-stimulation (non-expressing oocytes [2]; [test solute]i = 45 mM (30 mM for some solutes due to solubility)): 99 ± 3.0 % non-expressing oocyte control
Uptake of [3H]CQ (% PfCRTDd2 control), trans-stimulation, non-expressing oocytes (non-expressing oocytes [2]; [test solute]i = 5 mM (intracellular)): 3.2 ± 0.02 % PfCRTDd2 control
Uptake of [3H]CQ (% PfCRTDd2 control), trans-stimulation, non-expressing oocytes (non-expressing oocytes [2]; [test solute]i = 45 mM (intracellular; 30 mM for some solutes due to solubility)): 2.4 ± 0.02 % PfCRTDd2 control
Uptake of [3H]CQ (% PfCRTEcu1110 control), cis-inhibition (PfCRT^Ecu1110; [test solute] = 0.5 mM): 96 ± 6.6 % PfCRTEcu1110 control
Uptake of [3H]CQ (% PfCRTEcu1110 control), cis-inhibition (PfCRT^Ecu1110; [test solute] = 1 mM): 88 ± 6.1 % PfCRTEcu1110 control
Uptake of [3H]CQ (% PfCRTEcu1110 control), cis-inhibition (PfCRT^Ecu1110; [test solute] = 2 mM): 102 ± 6.2 % PfCRTEcu1110 control
PfCRT-mediated [3H]CQ transport, cis-inhibition (% PfCRTEcu1110 control) (PfCRT^Ecu1110; [test solute] = 0.5 mM): 94 ± 3.6 % PfCRTEcu1110 control
PfCRT-mediated [3H]CQ transport, cis-inhibition (% PfCRTEcu1110 control) (PfCRT^Ecu1110; [test solute] = 1 mM): 84 ± 4.9 % PfCRTEcu1110 control
PfCRT-mediated [3H]CQ transport, cis-inhibition (% PfCRTEcu1110 control) (PfCRT^Ecu1110; [test solute] = 2 mM): 100 ± 5.1 % PfCRTEcu1110 control
[3H]CQ transport (% PfCRTEcu1110 control), cis-inhibition, PfCRTEcu1110 (PfCRT^Ecu1110; [test solute] = 1 mM): 25 ± 0.6 % PfCRTEcu1110 control
[3H]CQ transport (% PfCRTEcu1110 control), cis-inhibition, PfCRTEcu1110 (PfCRT^Ecu1110; [test solute] = 2 mM): 30 ± 0.2 % PfCRTEcu1110 control
Uptake of [3H]CQ (% PfCRTDd2 control), cis-inhibition, PfCRTEcu1110 (PfCRT^Ecu1110; [test solute] = 0.5 mM): 31 ± 1.5 % PfCRTDd2 control
Uptake of [3H]CQ (% PfCRTDd2 control), cis-inhibition, PfCRTEcu1110 (PfCRT^Ecu1110; [test solute] = 1 mM): 28 ± 1.8 % PfCRTDd2 control
Uptake of [3H]CQ (% PfCRTDd2 control), cis-inhibition, PfCRTEcu1110 (PfCRT^Ecu1110; [test solute] = 2 mM): 33 ± 2.2 % PfCRTDd2 control
Uptake of [3H]CQ (% PfCRTDd2 control), cis-inhibition (PfCRT^Dd2; [test solute] = 0.5 mM): 100 ± 5.3 % PfCRTDd2 control
Uptake of [3H]CQ (% PfCRTDd2 control), cis-inhibition (PfCRT^Dd2; [test solute] = 2 mM): 100 ± 8.5 % PfCRTDd2 control
PfCRT-mediated [3H]CQ transport, cis-inhibition (% PfCRTDd2 control) (PfCRT^Dd2; [test solute] = 0.5 mM): 98 ± 4.1 % PfCRTDd2 control
PfCRT-mediated [3H]CQ transport, cis-inhibition (% PfCRTDd2 control) (PfCRT^Dd2; [test solute] = 1 mM): 99 ± 6.2 % PfCRTDd2 control
PfCRT-mediated [3H]CQ transport, cis-inhibition (% PfCRTDd2 control) (PfCRT^Dd2; [test solute] = 2 mM): 95 ± 3.5 % PfCRTDd2 control
Uptake of [3H]CQ (% PfCRTDd2 control), cis-inhibition, PfCRTDd2 (PfCRT^Dd2; [test solute] = 0.5 mM): 100 ± 5.3 % PfCRTDd2 control
Uptake of [3H]CQ (% PfCRTDd2 control), cis-inhibition, PfCRTDd2 (PfCRT^Dd2; [test solute] = 1 mM): 101 ± 8.1 % PfCRTDd2 control
Uptake of [3H]CQ (% PfCRTDd2 control), cis-inhibition, PfCRTDd2 (PfCRT^Dd2; [test solute] = 2 mM): 100 ± 8.5 % PfCRTDd2 control
Uptake of [3H]CQ (% non-expressing oocyte control), cis-inhibition (non-expressing oocytes [3]; [test solute] = 0.5 mM): 100 ± 5.6 % non-expressing oocyte control
Uptake of [3H]CQ (% non-expressing oocyte control), cis-inhibition (non-expressing oocytes [3]; [test solute] = 1 mM): 98 ± 5.3 % non-expressing oocyte control
Uptake of [3H]CQ (% non-expressing oocyte control), cis-inhibition (non-expressing oocytes [3]; [test solute] = 2 mM): 100 ± 4.6 % non-expressing oocyte control
Uptake of [3H]CQ (% PfCRTDd2 control), cis-inhibition, non-expressing oocytes (non-expressing oocytes [3]; [test solute] = 0.5 mM): 3.9 ± 0.02 % PfCRTDd2 control
Uptake of [3H]CQ (% PfCRTDd2 control), cis-inhibition, non-expressing oocytes (non-expressing oocytes [3]; [test solute] = 1 mM): 2.8 ± 0.04 % PfCRTDd2 control
Uptake of [3H]CQ (% PfCRTDd2 control), cis-inhibition, non-expressing oocytes (non-expressing oocytes [3]; [test solute] = 2 mM): 2.5 ± 0.05 % PfCRTDd2 control
Tested as potential co-substrate but not required for influx of VF-6 via PfCRT into the oocyte (PfCRT [4]): X
